# Test results published in patent publication US20230398125A1, “TREATING HEPATITIS” (Albireo AB, priority 2022, published 2023).
# pIC50: −log10 of the molar value.
# Tests used:
# [1] = biological target: T1, Human NTCP (Homo sapiens, UniProt Q14973); assay: Time course of dissociation (washout), [3H]taurocholate uptake in hNTCP CHO cells; format: cell-based; settings: 1 μM for 15 min, 6 hours postwashout; read-out: inhibition of human NTCP BA transport activity after washout
# T1 construct: expressed in transfected cells; peptide purchased from Pharmaron
# T1 sequence (Q14973 1-349): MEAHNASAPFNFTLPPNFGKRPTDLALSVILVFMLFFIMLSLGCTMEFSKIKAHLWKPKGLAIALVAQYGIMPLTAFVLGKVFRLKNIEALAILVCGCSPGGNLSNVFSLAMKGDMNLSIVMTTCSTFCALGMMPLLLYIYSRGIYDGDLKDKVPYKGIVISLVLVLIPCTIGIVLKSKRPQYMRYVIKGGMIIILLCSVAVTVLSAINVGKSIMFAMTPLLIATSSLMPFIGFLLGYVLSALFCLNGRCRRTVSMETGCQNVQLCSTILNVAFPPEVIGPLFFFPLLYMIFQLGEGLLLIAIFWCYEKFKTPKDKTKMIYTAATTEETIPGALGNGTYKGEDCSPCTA
# Description: This study was performed using a [^3H]taurocholate uptake assay protocol. Stably transfected CHO cells expressing human NTCP (hNTCP) were seeded onto 24 well plates at a density of 1.5-2.0×10^5 cells/well in CHO cell media (DMEM/F12 media supplemented with 10% FBS, Penicillin/Streptomycin) plus Geneticin (G418) to maintain selection in culture. After overnight incubation, the media was replaced, and CHO cells were treated with 10 mM sodium butyrate to induce transporter expression (final concentration=[…]). Twenty-four h later, the media was removed, and cells were washed with warm (37° C.) Hanks balanced salt solution (HBSS) containing sodium (Na+). Cells were then incubated with 1 μM of the test inhibitors or vehicle (DMSO) for 15 min in CHO cell media at 37° C. […]
# For the [^3H]taurocholate uptake assay, the media was aspirated at the end of each washout period, and cells were washed three times with warm Hanks balanced salt solution (HBSS) containing sodium (Na+). […] Duplicate 100 μL aliquots of the lysate were transferred to vials with scintillation liquid and counted after neutralization and overnight quenching. Cell-associated protein was measured in duplicate using the BCA protein assay, and cell-associated radioactivity was normalized to protein content.
# [2] = biological target: T2, M. fascicularis Ntcp (Macaca fascicularis, UniProt G7PAR4); assay: [3H]TC transport in HEK293 cells transiently transfected with M. fascicularis Ntcp; format: cell-based; settings: read-out: IC50 bile acid transport via M. fascicularis Ntcp
# T2 construct: expressed in transfected cells; host or cells: GripTite 293 MSR (HEK293) cells, transient, Lipofectamine 2000
# T2 sequence (G7PAR4 1-349): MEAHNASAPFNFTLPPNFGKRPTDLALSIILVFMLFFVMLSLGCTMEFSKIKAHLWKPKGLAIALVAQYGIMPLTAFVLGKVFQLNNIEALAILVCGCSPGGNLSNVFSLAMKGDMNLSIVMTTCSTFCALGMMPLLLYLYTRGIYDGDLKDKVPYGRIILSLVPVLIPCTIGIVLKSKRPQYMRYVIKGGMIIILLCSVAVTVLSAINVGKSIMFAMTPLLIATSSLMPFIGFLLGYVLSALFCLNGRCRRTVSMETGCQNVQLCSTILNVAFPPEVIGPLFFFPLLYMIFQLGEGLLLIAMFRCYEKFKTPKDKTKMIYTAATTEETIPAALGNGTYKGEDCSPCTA
# Description: GripTite 293 MSR cells (here referred to as HEK293 cells, Invitrogen), a modified HEK293 cell line expressing human macrophage scavenger receptor for stronger adhesion, were maintained at 37° C., 5% CO2 and 95% humidity in DMEM/F-12 medium (Thermo Fisher Scientific) supplemented with 10% fetal calf serum (Sigma), 4 mM L-glutamine (PAA) and penicillin/streptomycin. HEK293 cells were transiently transfected with the M. fascicularis Ntcp cDNA construct for transport and peptide binding assays. Transfection was performed with Lipofectamine 2000 (Thermo Fisher Scientific). […]
# Bile acid transport measurements were performed in the NTCP-HEK293 cells with tritium-labelled taurocholic acid (here referred to as [^3H]TC) (20 Ci/mmol, 0.09 mCi/mL, Perkin Elmer, Waltham, USA). […] Cell-associated radioactivity of [^3H]TC or [^3H]preS1 was quantified by liquid scintillation counting in a Packard Microplate Scintillation Counter TopCount NXT (Packard Instrument Company, Meriden, USA). Transport rates and [^3H]preS1 binding were determined in counts per minute (cpm). The mean of the 0% control was subtracted and the net [^3H]TC transport rates and net [^3H]preS1 binding rates, respectively, were expressed as % of control. IC50 values were calculated from quadruplicate determinations by GraphPad Prism 6 (GraphPad, San Diego, Calif., USA). […]
smiles,measurement,setting,value
"CCCCC1CN(c2ccccc2)c2cc(SC)c(O/C=C(\F)C(=O)O)cc2S(=O)(=O)N1C (centres unmarked) [Compound 1, (Z)-3-((3-butyl-2-methyl-7-(methylthio)-1,1-dioxido-5-phenyl-2,3,4,5-tetrahydro-1,2,5-benzothiadiazepin-8-yl)oxy)-2-fluoroacrylic acid]",inhibition at 1 µM,[1],> 50%
same,pIC50,[2],6.70
